Results taken from ChEMBL document CHEMBL1147160, “Bioactive constituents from the marine crinoid Himerometra magnipinna” (2007).
Activity calls are given as the source filed them. No cut-off for these calls is given here.

Columns and labels:
[1] = test system: Streptomyces; assay: Inhibition of hyphae formation in Streptomyces 85E at 80 ug/disk after 30 hrs by HF1 assay; assay type: functional; conditions: for zone of inhibition at 80 µg/disc: read-out: IZ
[2] = test system: Streptomyces; assay: Inhibition of hyphae formation in Streptomyces 85E at 40 ug/disk after 30 hrs by HF1 assay; assay type: functional, organism-based

Row | Structure (SMILES) | Activity [1] | zone of inhibition at 80 µg/disc [1] [mm] | Activity [2]
1 | COC1=C(Br)[C@H](O)[C@@]2(C=C1Br)CC(C(=O)NCCCCNC(=O)C1=NO[C@]3(C=C(Br)C(OC)=C(Br)[C@@H]3O)C1)=NO2 | inactive |  | 
2 | COC1=C(Br)[C@H](O)[C@@]2(C=C1Br)CC(C(=O)NCCC(O)CCNC(=O)C1=NO[C@]3(C=C(Br)C(OC)=C(Br)[C@@H]3O)C1)=NO2 |  | 11 | inactive
3 | CCCc1cc(O)c2c(c1)C(C1c3cc(O)cc(O)c3C(=O)c3c(O)cc(C(O)CC)cc31)c1cc(O)cc(O)c1C2=O (stereo not given) |  | 11 | inactive
